What was measured:
[1] = test system: neuronal cells isolated from the E15 CD1 forebrain; test: Neuronal cell proliferation and long-distance migration in vitro; format: cell-based, mouse
Procedure: Isolation and primary culture of neuronal cells: Primary culture of embryonic GABAergic neurons from CD1 telencephalon or after the saline or NAD+ treatment paradigms were performed using established methods. Briefly, embryonic brains were extracted under a stereo microscope and placed into cold PBS. After removal of the pial membrane, the telencephalon was dissected from each embryonic brain. The telencephalon was minced into 1-2 mm slices in cold PBS. Minced telencephalon was treated with 0.1× trypsin/EDTA at 37° C. for 5 min. Trypsin treatment was stopped by adding FBS-DMEM media and DNase I consecutively. Dissociated cells were filtered with a 40 μm cell strainer and finally filtered cells were cultured in poly-D-lysine coated culture dishes with Neurobasal medium (Life technologies) with 1× B-27 (Life technologies) and 1× Glutamax (Life technologies).
Neuronal migration assay: In preparation for cell migration assays, one well square culture inserts (ibidi GmbH) were placed in the center of a poly-Ornithine/Laminin coated 35 mm dish, to make a small rectangular patch that is labeled outside the dish. Embryonic neurons prepared from the saline and NAD+ treated groups were seeded in the inserts in Neurobasal medium, supplemented with 1× B-27 and 1× Glutamax. After the cells had attached, the inserts were removed to initiate cell migration in all 4 quadrants of the dish. After 24 hours, cells were fixed and labeled with anti-β-Tubulin antibody (1:2000, Biolegend). Neuronal migration was assessed by measuring the distance between the final positions of cells from the border of the rectangular patch was outlined on the first day, using ImageJ software.
In one experiment, periventricular endothelial cells were isolated from E15 wildtype (CD1) forebrain and tested the effect of NAD^+ addition in vitro. Exogenous addition of 100 μM NAD^+ was able to initiate significant endothelial cell proliferation within 2 days of culture and a 35 mm culture dish was confluent within 4-6 days (FIGS. 2A-2D). […]

Gabrb3^ECKO mice = test: Tail suspension test; format: in vivo, mouse; settings: vs saline-treated Gabrb3^ECKO mice
Procedure: Behavioral Experiments: Mice were housed in our animal facility with a 12-hour light cycle with ad libitum access to food and water. Offspring stayed with their mothers until weaning at PND 21 after which males and females were separated. Before all behavioral testing, mice were acclimated to the testing room for 1 hour. Behavioral assays were performed according to established protocols referenced here: self-grooming, light-dark box, tail suspension test, Y-maze, open field locomotion activity, three chamber social interaction test and nest building with nestlets and with shredded paper. Both males and females were used for all behavioral assays. Experimenters scoring behaviors were blinded to the genotypes and treatment. Sample sizes for each assay are noted in figure legends.
Anxiety was next assessed with the classic light-dark transition test which triggers a struggle between the desires to explore a novel environment versus natural aversion of a brightly illuminated open space. […] The Y maze spontaneous alternation test was used to evaluate for spatial learning and memory in the three groups of mice. After introduction to the center of the maze, the mice were given free access to all three arms. […] The total number of arm entries and the sequence of entries are recorded in order to calculate the percentage of alternation. […]

NC(=O)c1ccc[n+]([C@@H]2O[C@H](COP(=O)([O-])OP(=O)(O)OC[C@H]3O[C@@H](n4cnc5c(N)ncnc54)[C@H](O)[C@@H]3O)[C@@H](O)[C@H]2O)c1 [NAD^+]
neuronal cell proliferation ([1]; NAD^+ addition): an increase in cell proliferation
long-distance migration of neuronal cells ([1]; NAD^+ addition, neurons alone): increased long-distance migration of neuronal cells
long-distance migration of neuronal cells ([1]; neurons seeded on periventricular endothelial cells): more robust
immobility times (Gabrb3^ECKO mice): significantly lower immobility times
